Patent US11638689B2, “Deep topical systemic nitric oxide therapy apparatus and method” (SYK Technologies LLC, priority 2013, dated 2023)

System: bacteria on a surface, such as a person's skin
Assay: Nitric oxide dose required to kill bacteria on a surface
Settings: ppm of nitric oxide

[N]=O [nitric oxide]
dose required to kill bacteria on a surface: ≥ 320 ppm
